Reference: PMC4912613, “A broad analysis of resistance development in the malaria parasite” (Nature Communications, 2016)
Like-named read-outs stand apart in the source and are kept apart here.

Tests used:
P. falciparum = test: Rate of killing (parasite viability) assay; format: cell-based, Plasmodium falciparum; conditions: profile compared with chloroquine, pyrimethamine, atovaquone; 48 h treatment
Outline: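 Parasites exposed to compound for 48 h, then washed and given fresh labelled erythrocytes; invasion used as viability surrogate. Double-stained erythrocytes (RBC plus parasite DNA label) counted to give percent survival; time-course profiles benchmarked against chloroquine, pyrimethamine and atovaquone.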

[1] = tested on: Stage 5 gametocytes from P. falciparum NF54; test: Late-stage (stage V) gametocyte survival assay, MitoTracker; format: cell-based, Plasmodium falciparum; conditions: for EC50: Plasmodium falciparum, read-out: Stage 5 Gametocyte EC50; for EC50 fold shift compared to asexual stage: Stage 5 Gametocyte EC50: gametocyte EC50 / 3D7 EC50
Outline: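 Synchronized P. falciparum NF54 stage V gametocytes were exposed to compound (1.25 μM or 12.5 μM) for 72 h. MitoTracker Red CMXRos (500 nM final) was then added with saponin to lyse RBCs, and plates were imaged by high-content fluorescence. The readout was the number of metabolically active gametocytes per well.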

3D7 = test: Cross-resistance EC50 assay, 3D7 parent / sensitive strain; format: cell-based; conditions: Plasmodium falciparum
Outline: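 P. falciparum asexual blood-stage proliferation, parent/sensitive strain of each resistant clone; 48-h assay with rings (0.5% parasitemia, 2.0% haematocrit) in RPMI-1640/5% AlbuMAX, ^3H-hypoxanthine added at 24 h, normalized to no-drug and 2 μM artesunate controls; alternatively 72-h SYBR Green assay (0.3% parasitemia, 4% haematocrit). EC50s from triplicate fits.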

[2] = SYBR green 72 hour assay, asynchronized parasites, 96-well or 1536-well format, 3D7 parent, read-out: 3D7 (PARENT) EC50 (µM) Average EC50
[3] = SYBR green 72 hour assay, synchronized parasites, 384-well format, strain 3D7 (parent), read-out: 3D7 (PARENT) Average EC50
[4] = hypoxanthine 48-hour assay, synchronized parasites, 96-well format, strain 3D7 (parent), read-out: 3D7 (PARENT) Average EC50
[5] = hypoxanthine 48-hour assay, synchronized parasites, 96-well format, strain 3D7-C9-WT (parent of PfATP4 Mut3), read-out: 3D7-C9-WT (PARENT) Average EC50

Structure (SMILES)	Killing Rate (P. falciparum)	EC50 ([1]; P. falciparum NF54, 72 h) [nM]	EC50 fold shift compared to asexual stage: Stage 5 Gametocyte EC50 [1]	EC50 (3D7; [2]) [µM]	EC50 (3D7; [3]) [µM]	EC50 (3D7; [4]) [µM]	EC50 (3D7; [5]) [µM]	EC50 ([1]; NF54, 72 h) [nM]	EC50 (3D7; 3D7, 48 h, read-out: 3D7 (PARENT) Average EC50) [µM]	EC50 (3D7; 3D7, 48 h, read-out: 3D7-C9-WT (PARENT) Average EC50) [µM]	EC50 (3D7; 3D7, 72 h, read-out: 3D7 (PARENT) Average EC50) [µM]	EC50 (3D7; 3D7, 72 h, read-out: 3D7 (PARENT) EC50 (µM) Average EC50) [µM]	EC50 (3D7; SYBR green 72 hour assay, synchronized parasites, 384-well format, 3D7 parent, read-out: 3D7 (PARENT) Average EC50) [µM]
Cc1ccc(S(=O)(=O)n2cc(-c3ccnc(N)c3)c3cc(Br)cnc32)cc1 [MMV024114]	PYR/CQ (moderate)	> 12500	> 47	1.17	0.418	0.264	0.219						
Cl.c1ccc2c(NCCCCCCNc3c4c(nc5ccccc35)CCCC4)c3c(nc2c1)CCCC3 [MMV019555]	CQ (fast)							451	0.087	0.094	0.062	0.065	
COc1cc(C(=O)ON=C(N)Cc2cccc3ccccc23)cc(OC)c1OC [MMV666687]	CQ (fast)	4340		1	0.89	0.351	0.294						
COc1cc2cc(C(=O)Nc3ccccc3)c(N)nc2cc1OC [MMV006767]	PYR (moderate)	> 12500		1.51	0.762	0.957	0.74						
O=C(NCC(CCCN1CCC(c2c[nH]c3ccccc23)CC1)c1ccccc1)Nc1ccc(Cl)c(Cl)c1 (centres unmarked) [MMV029272]	PYR (moderate)	2230	16.40	2.87	0.17	0.139	0.115						
CCOc1cc2c(cc1OCC)C(c1cc(Cl)ccc1O)NCC2 (centres unmarked) [MMV000478]	CQ (fast)	> 1250	> 1.25	0.613	1.85	1.07	1.28						
CN(C)CCCNCc1ccc(-c2ccc(Cl)c(Cl)c2)o1 [MMV673964]	CQ (fast)	1130	1.86	0.068		0.633	0.575						0.29
O=C(Nc1ccccc1O)c1ccc(Oc2cccc(C(=O)Nc3ccccc3O)c2)cc1 [MMV665888]	PYR (moderate)	2980	2.46	0.295	0.614	1.16							
c1cncc(-c2cc(N3CCC(CN4CCOCC4)CC3)nc(-c3ccncc3)n2)c1 [MMV668399]	PYR (moderate)	> 12500		0.322	0.089	0.081	0.072						
CCCCCCCN(Cc1ccc(OC(C)(C)C(=O)OCC)cc1)C(=O)Nc1ccc(Cl)cc1OCC [MMV021735]	ATQ (slow)	> 11600	> 32	0.054	0.383	0.459	0.543						
